Experimental data: article PMC11215778 (Journal of Medicinal Chemistry, 2024)
Read-outs that look alike come from different tables or passages of the source.

What was measured:
[1] = Cytotoxicity assay (CellTiter-Glo) on normal human dermal fibroblasts; format: cell-based; conditions: normal human dermal fibroblasts (NHDF)
Experimental: The cytotoxicity of the compounds was evaluated in nontumor normal human dermal fibroblasts (NHDF) purchased from ATCC (PCS-201-012, Manassas, VA, USA). The cells were negatively tested for the presence of mycoplasma (cat. #: LT07-318 MycoAlert Mycoplasma Detection kit, Lonza). The cells were cultivated in DMEM high glucose 4.5 g/L medium (cat. #: R8758, Merck, Germany). The medium was supplemented with 10% fetal bovine serum (cat. #: F7524, Merck, Germany; inactivated at 56 °C for 30 min) and 1.0% of L-glutamine (cat. #: G7513, Merck, Germany) without antibiotics. Cells were seeded in 384-well format white micro plates (cat. #: 164610, Nunc, Thermo Fisher Scientific, USA) at a concentration of 60,000 cells per mL and left to rest overnight. Next day, 1 and 10 μM concentrations of the tested compounds were added in triplicates. The cells were cultivated at 37 °C and 5% CO2 for 72 h after which a luminescent cell viability assay (CellTiter-Glo 2.0, cat. #: Promega, Madison, USA) was added. The plate was left on a shaker (350 rpm) in the dark for 20 min at RT. Luminescence was measured by a Spark multimode reader from Tecan (Tecan Group Ltd., Switzerland). The signal of the compound-treated cells was related to the value of the untreated control, which was arbitrarily set to 100% viability.

[2] = Plasma stability assay, human plasma; format: in vitro ADME; conditions: pooled plasma, read-out: Plasma stability % remaining at 6 h, hum
Experimental: […] The reactions were terminated by adding 4 vol of ice-cold methanol, and the samples were then mixed vigorously, frozen at −20 °C for 1 h, and left overnight at 8 °C. After that, the samples were centrifuged, and the supernatant was analyzed by means of LC–MS/MS Sciex 6500 triple quadrupole (Sciex, Framingham, MA, USA). Zero time points were prepared by adding ice-cold methanol to the compound prior to the addition of the plasma.

[3] = Plasma stability assay, rat plasma; format: in vitro ADME
in vitro = in vitro ADME; conditions: human, Caco-2; for Papp A→B at 3 h, 5 µM: read-out: Caco-2 permeability Papp A–B
Experimental: A Transwell system consisting of two compartments separated by a monolayer of differentiated Caco-2 cells was employed for the intestinal permeability evaluation. Thanks to the ability of Caco-2 cells to become polarized, bidirectional transport (A–B and B–A) could be measured and the efflux ratio calculated.
The transepithelial bidirectional transport of tested compounds (5 μM, pH 7.4/7.4) across the Caco-2 monolayers was studied using the BD BioCoat HTS Caco-2 assay system (BD Biosciences, Bedford, MA) as described in detail elsewhere.[47] Aliquots were collected from the donor and acceptor compartment at the end of the transport period (3 h), the integrity of monolayers was verified using Lucifer Yellow dye, and the compounds were quantified using LC–MS/MS (Triple Quad 6500+, Sciex). The apparent permeability coefficient (Papp) was calculated from the following equation: Papp = (dQ/dt)/C0 × A, where dQ/dt is the rate of absorption of the drug across the cells, C0 is the donor compartment concentration at time zero, and A is the area of the monolayer. The efflux ratio was expressed as (Papp B–A)/(Papp A–B). Recovery (%) was determined as (total compound mass in donor and receiver compartments at the end of the incubation/initial compound mass in the donor compartment) × 100.

[4] = Microsomal stability, human liver microsomes; format: in vitro ADME; conditions: pooled liver microsomes, pH 7.4; human liver microsomes 0.5 mg/mL, 10 μM compound; read-out: Microsomal stability CLint, hum
Experimental: (§1) . Zero time points were prepared by adding ice-cold methanol to a mixture of the compound with cofactors prior to the addition of microsomes. […]. Intrinsic clearance (CLint) was calculated using the following formula: [drawing 1] where V = incubation volume per milligram of microsomal protein (μL/mg) and t1/2 = microsomal half-life.

[5] = Microsomal stability, rat liver microsomes; format: in vitro ADME; conditions: pH 7.4; rat liver microsomes
Experimental: as §1

[6] = 10 uM, read-out: NHDF viability at 10 uM (supplement csv)
[7] = 10 μM, untreated control = 100%, read-out: NHDF Viability 10 μM

SMILES: O=C(OC[C@H]1CCCN1)[C@@H]1[C@H]2C[C@H]3c4[nH]c5ccccc5c4CCN3C[C@@H]2CC[C@@H]1O [Compound 4a, 17-α-Hydroxyyohimban-16-α-carboxylic acid (R)-Pyrrolidin-2-ylmethyl Ester]
- viability at 72 h, 1 µM [1]: 113%
- viability at 72 h, 10 µM [1, 6]: 106%
- viability at 72 h, 10 µM [1, 7]: 106%
- remaining at 6 h, 5 μM ([2]; human plasma, 5 μM, 37 °C): 88%
- remaining at 6 h, 5 μM [3]: 68%

SMILES: O=C(OC[C@@H]1CCCN1)[C@@H]1[C@H]2C[C@H]3c4[nH]c5ccccc5c4CCN3C[C@@H]2CC[C@@H]1O [Compound 4b, 17-α-Hydroxyyohimban-16-α-carboxylic acid (S)-Pyrrolidin-2-ylmethyl Ester]
- viability at 72 h, 1 µM [1]: 112%
- viability at 72 h, 10 µM [1, 6]: 103%
- viability at 72 h, 10 µM [1, 7]: 103%

SMILES: CNCCOC(=O)[C@@H]1[C@H]2C[C@H]3c4[nH]c5ccccc5c4CCN3C[C@@H]2CC[C@@H]1O [Compound 4c, 17-α-Hydroxyyohimban-16-α-carboxylic Acid 2-(Methylamino)ethyl Ester]
- viability at 72 h, 1 µM [1]: 104%
- viability at 72 h, 10 µM [1, 6]: 91%
- viability at 72 h, 10 µM [1, 7]: 91%
- remaining at 6 h, 5 μM ([2]; human plasma, 5 μM, 37 °C): 91 ± 5%
- remaining at 6 h, 5 μM [3]: 80 ± 1%

SMILES: O=C(OC1CCNCC1)[C@@H]1[C@H]2C[C@H]3c4[nH]c5ccccc5c4CCN3C[C@@H]2CC[C@@H]1O [Compound 4d, 17-α-Hydroxyyohimban-16-α-carboxylic Acid Piperidine-4-yl Ester]
- viability at 72 h, 1 µM [1]: 107%
- viability at 72 h, 10 µM [1, 6]: 104%
- viability at 72 h, 10 µM [1, 7]: 104%
- recovery at 3 h, 5 µM (in vitro): 101%
- Papp A→B at 3 h, 5 µM (in vitro; 5 μM, pH 7.4/7.4, 3 h): 1 ×10⁻⁶ cm/s
- Papp B→A at 3 h, 5 µM (in vitro; 5 μM, pH 7.4/7.4, 3 h, read-out: Caco-2 permeability Papp B–A): 2 ×10⁻⁶ cm/s
- remaining at 6 h, 5 μM ([2]; human plasma, 5 μM, 37 °C): 100 ± 1%
- remaining at 6 h, 5 μM [3]: 87%

SMILES: O=C(OC1CCCNC1)[C@@H]1[C@H]2C[C@H]3c4[nH]c5ccccc5c4CCN3C[C@@H]2CC[C@@H]1O (stereo partly drawn) [Compound 4e, 17-α-Hydroxyyohimban-16-α-carboxylic Acid Piperidine-3-yl Ester]
- viability at 72 h, 1 µM [1]: 84%
- viability at 72 h, 10 µM [1, 6]: 82%
- viability at 72 h, 10 µM [1, 7]: 82%

SMILES: O=C(OCC1CNC1)[C@@H]1[C@H]2C[C@H]3c4[nH]c5ccccc5c4CCN3C[C@@H]2CC[C@@H]1O [Compound 4f, 17-α-Hydroxyyohimban-16-α-carboxylic Acid Azetidin-3-ylmethyl Ester]
- viability at 72 h, 1 µM [1]: 119%
- viability at 72 h, 10 µM [1, 6]: 119%
- viability at 72 h, 10 µM [1, 7]: 119%

SMILES: O=C(OC[C@H]1CCN1)[C@@H]1[C@H]2C[C@H]3c4[nH]c5ccccc5c4CCN3C[C@@H]2CC[C@@H]1O [Compound 4g, 17-α-Hydroxyyohimban-16-α-carboxylic Acid (R)-Azetidin-2-ylmethyl Ester]
- microsomal CLint at 10 µM [4]: 4 ± 1 µL/min/mg
- viability at 72 h, 1 µM [1]: 120%
- viability at 72 h, 10 µM [1, 6]: 120%
- viability at 72 h, 10 µM [1, 7]: 120%
- microsomal CLint at 10 µM [5]: 1 ± 1 µL/min/mg
- remaining at 6 h, 5 μM ([2]; human plasma, 5 μM, 37 °C): 118 ± 3%
- remaining at 6 h, 5 μM [3]: 134 ± 1%

SMILES: O=C(OC[C@@H]1CCN1)[C@@H]1[C@H]2C[C@H]3c4[nH]c5ccccc5c4CCN3C[C@@H]2CC[C@@H]1O [Compound 4h, 17-α-Hydroxyyohimban-16-α-carboxylic acid (S)-Azetidin-2-ylmethyl Ester]
- viability at 72 h, 1 µM [1]: 116%
- viability at 72 h, 10 µM [1, 6]: 118%
- viability at 72 h, 10 µM [1, 7]: 118%

SMILES: O=C(OC[C@@H]1CCNC1)[C@@H]1[C@H]2C[C@H]3c4[nH]c5ccccc5c4CCN3C[C@@H]2CC[C@@H]1O [Compound 4i, 17-α-Hydroxyyohimban-16-α-carboxylic Acid (R)-Pyrrolidin-3-ylmethyl Ester]
- microsomal CLint at 10 µM [4]: 4 ± 1 µL/min/mg
- viability at 72 h, 1 µM [1]: 109%
- viability at 72 h, 10 µM [1, 6]: 107%
- viability at 72 h, 10 µM [1, 7]: 107%
- microsomal CLint at 10 µM [5]: 1 ± 1 µL/min/mg
- remaining at 6 h, 5 μM ([2]; human plasma, 5 μM, 37 °C): 88 ± 3%
- remaining at 6 h, 5 μM [3]: 62 ± 7%

SMILES: O=C(OC[C@H]1CCNC1)[C@@H]1[C@H]2C[C@H]3c4[nH]c5ccccc5c4CCN3C[C@@H]2CC[C@@H]1O [Compound 4j, 17-α-Hydroxyyohimban-16-α-carboxylic Acid (S)-Pyrrolidin-3-ylmethyl Ester]
- microsomal CLint at 10 µM [4]: 2 µL/min/mg
- viability at 72 h, 1 µM [1]: 104%
- viability at 72 h, 10 µM [1, 6]: 102%
- viability at 72 h, 10 µM [1, 7]: 102%
- microsomal CLint at 10 µM [5]: 1 ± 1 µL/min/mg
- remaining at 6 h, 5 μM ([2]; human plasma, 5 μM, 37 °C): 92%
- remaining at 6 h, 5 μM [3]: 76 ± 3%

SMILES: O=C(O[C@@H]1CCNC1)[C@@H]1[C@H]2C[C@H]3c4[nH]c5ccccc5c4CCN3C[C@@H]2CC[C@@H]1O [Compound 4k, 17-α-Hydroxyyohimban-16-α-carboxylic Acid (R)-Pyrrolidin-3-yl Ester]
- microsomal CLint at 10 µM [4]: 3 ± 2 µL/min/mg
- viability at 72 h, 1 µM [1]: 99%
- viability at 72 h, 10 µM [1, 6]: 91%
- viability at 72 h, 10 µM [1, 7]: 91%
- microsomal CLint at 10 µM [5]: 1 ± 1 µL/min/mg
- recovery at 3 h, 5 µM (in vitro): 101%
- Papp A→B at 3 h, 5 µM (in vitro; 5 μM, pH 7.4/7.4, 3 h): 1 ×10⁻⁶ cm/s
- remaining at 6 h, 5 μM ([2]; human plasma, 5 μM, 37 °C): 95 ± 5%
- remaining at 6 h, 5 μM [3]: 110 ± 3%

SMILES: O=C(O[C@H]1CCNC1)[C@@H]1[C@H]2C[C@H]3c4[nH]c5ccccc5c4CCN3C[C@@H]2CC[C@@H]1O [Compound 4l, 17-α-Hydroxyyohimban-16-α-carboxylic Acid (S)-Pyrrolidin-3-yl Ester]
- viability at 72 h, 1 µM [1]: 100%
- viability at 72 h, 10 µM [1, 6]: 94%
- viability at 72 h, 10 µM [1, 7]: 94%
- recovery at 3 h, 5 µM (in vitro): 112%
- Papp A→B at 3 h, 5 µM (in vitro; 5 μM, pH 7.4/7.4, 3 h): 1 ×10⁻⁶ cm/s
- remaining at 6 h, 5 μM ([2]; human plasma, 5 μM, 37 °C): 100%
- remaining at 6 h, 5 μM [3]: 80 ± 1%

SMILES: O=C(OC1CNC1)[C@@H]1[C@H]2C[C@H]3c4[nH]c5ccccc5c4CCN3C[C@@H]2CC[C@@H]1O [Compound 4m, 17-α-Hydroxyyohimban-16-α-carboxylic Acid Azetidin-3-yl Ester]
- microsomal CLint at 10 µM [4]: 3 ± 2 µL/min/mg
- viability at 72 h, 1 µM [1]: 77%
- viability at 72 h, 10 µM [1, 6]: 77%
- viability at 72 h, 10 µM [1, 7]: 77%
- recovery at 3 h, 5 µM (in vitro): 101%
- Papp A→B at 3 h, 5 µM (in vitro; 5 μM, pH 7.4/7.4, 3 h): 1 ×10⁻⁶ cm/s
- remaining at 6 h, 5 μM ([2]; human plasma, 5 μM, 37 °C): 100 ± 3%
- remaining at 6 h, 5 μM [3]: 70 ± 2%

SMILES: N[C@H]1C[C@@H](OC(=O)[C@@H]2[C@H]3C[C@H]4c5[nH]c6ccccc6c5CCN4C[C@@H]3CC[C@@H]2O)C1 [Compound 4o, 17-α-Hydroxyyohimban-16-α-carboxylic Acid cis-3-Aminocyclobutyl Ester]
- microsomal CLint at 10 µM [4]: 2 ± 1 µL/min/mg
- viability at 72 h, 1 µM [1]: 84%
- viability at 72 h, 10 µM [1, 6]: 86%
- viability at 72 h, 10 µM [1, 7]: 86%
- microsomal CLint at 10 µM [5]: 3 µL/min/mg
- recovery at 3 h, 5 µM (in vitro): 101%
- Papp A→B at 3 h, 5 µM (in vitro; 5 μM, pH 7.4/7.4, 3 h): 1 ×10⁻⁶ cm/s
- remaining at 6 h, 5 μM ([2]; human plasma, 5 μM, 37 °C): 97 ± 5%
- remaining at 6 h, 5 μM [3]: 75%

SMILES: O=C(N[C@H]1CCNC1)[C@@H]1[C@H]2C[C@H]3c4[nH]c5ccccc5c4CCN3C[C@@H]2CC[C@@H]1O [Compound 5a, 17-α-Hydroxyyohimban-16-α-carboxylic Acid (S)-N-(Pyrrolidin-3-yl)amide]
- viability at 72 h, 1 µM [1]: 90%
- viability at 72 h, 10 µM [1, 6]: 88%
- viability at 72 h, 10 µM [1, 7]: 88%
- remaining at 6 h, 5 μM ([2]; human): 100 ± 1%
- remaining at 6 h, 5 μM [3]: 114 ± 2%

SMILES: O=C(NC1CNC1)[C@@H]1[C@H]2C[C@H]3c4[nH]c5ccccc5c4CCN3C[C@@H]2CC[C@@H]1O [Compound 5b, 17-α-Hydroxyyohimban-16-α-carboxylic Acid N-(Azetidin-3-yl)amide]
- viability at 72 h, 1 µM [1]: 88%
- viability at 72 h, 10 µM [1, 6]: 88%
- viability at 72 h, 10 µM [1, 7]: 88%
